Patent US20230183193A1, “4-DIFLUOROMETHYL BENZOYL AMIDES WITH HERBICIDAL ACTION” (BAYER CROPSCIENCE AKTIENGESELLSCHAFT, priority 2017, published 2023)

Key:
Format in all cases: in vivo
Abutilon theophrasti [1] = test: Pre-emergence herbicidal action, ABUTH; conditions: dosage 320 g/ha, scored visually after 3 weeks vs untreated controls
How it was run: (§1)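 Percent herbicidal activity rated by eye 3 weeks after pre-emergence soil-surface application, compared with untreated pots. Seeds sat under sandy loam; sprays carried 0.2% wetting agent.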

Alopecurus myosuroides [2] = test: Pre-emergence herbicidal action, ALOMY; conditions: dosage 320 g/ha, scored visually after 3 weeks vs untreated controls
How it was run: as §1

Amaranthus retroflexus [3] = test: Pre-emergence herbicidal action, AMARE; conditions: dosage 320 g/ha, scored visually after 3 weeks vs untreated controls
How it was run: as §1

Avena fatua [4] = test: Pre-emergence herbicidal action, AVEFA; conditions: dosage 320 g/ha, scored visually after 3 weeks vs untreated controls
How it was run: as §1

Cyperus serotinus = test: Pre-emergence herbicidal action, CYPES; conditions: dosage 320 g/ha, scored visually after 3 weeks vs untreated controls
How it was run: as §1

Matricaria inodora = test: Pre-emergence herbicidal action, MATIN; conditions: dosage 320 g/ha, scored visually after 3 weeks vs untreated controls
How it was run: as §1

Setaria viridis [5] = test: Pre-emergence herbicidal action, SETVI; conditions: dosage 320 g/ha, scored visually after 3 weeks vs untreated controls
How it was run: as §1

Stellaria media [6] = test: Pre-emergence herbicidal action, STEME; conditions: dosage 320 g/ha, scored visually after 3 weeks vs untreated controls
How it was run: as §1

Viola tricolor [7] = test: Pre-emergence herbicidal action, VIOTR; conditions: dosage 320 g/ha, scored visually after 3 weeks vs untreated controls
How it was run: as §1

Abutilon theophrasti [8] = test: Post-emergence herbicidal action, ABUTH; conditions: 80 g/ha, Table D
How it was run: (§2)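 Visual percent activity relative to untreated controls, assessed about 3 weeks after foliar treatment, where 0% equals control growth and 100% equals death. Compounds, as wettable powders or emulsion concentrates, are sprayed onto one-leaf-stage plants in sandy loam.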

Alopecurus myosuroides [9] = test: Post-emergence herbicidal action, ALOMY; conditions: 80 g/ha, Table C
How it was run: as §2

Amaranthus retroflexus [10] = test: Post-emergence herbicidal action, AMARE; conditions: 80 g/ha, Table D
How it was run: as §2

Avena fatua [11] = test: Post-emergence herbicidal action, AVEFA; conditions: 80 g/ha, Table C
How it was run: as §2

Pharbitis purpureum = test: Post-emergence herbicidal action, PHBPU; conditions: 80 g/ha, Table D
How it was run: as §2

Setaria viridis [12] = test: Post-emergence herbicidal action, SETVI; conditions: 80 g/ha, Table C
How it was run: as §2

Stellaria media [13] = test: Post-emergence herbicidal action, STEME; conditions: 80 g/ha, Table D
How it was run: as §2

Viola tricolor [14] = test: Post-emergence herbicidal action, VIOTR; conditions: 80 g/ha, Table D
How it was run: as §2

ECHCG = test: Post-emergence herbicidal action, ECHCG; conditions: 80 g/ha, Table C
How it was run: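 Weed and crop plants grown in sandy loam in the greenhouse, treated at the one-leaf stage 2–3 weeks after sowing. Damage scored visually after about 3 weeks vs untreated controls (0% = control, 100% = dead).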

| SMILES | herbicidal activity ABUTH (Abutilon theophrasti [1]) | herbicidal activity ALOMY (Alopecurus myosuroides [2]) | herbicidal activity AMARE (Amaranthus retroflexus [3]) | herbicidal activity AVEFA (Avena fatua [4]) | herbicidal activity CYPES (Cyperus serotinus) | herbicidal activity MATIN (Matricaria inodora) | herbicidal activity SETVI (Setaria viridis [5]) | Herbicidal activity STEME (Stellaria media [6]) | herbicidal activity VIOTR (Viola tricolor [7]) | herbicidal activity ABUTH (Abutilon theophrasti [8]) | herbicidal activity ALOMY (Alopecurus myosuroides [9]) | herbicidal activity AMARE (Amaranthus retroflexus [10]) | herbicidal activity AVEFA (Avena fatua [11]) | Herbicidal activity PHBPU (Pharbitis purpureum) | herbicidal activity SETVI (Setaria viridis [12]) | Herbicidal activity STEME (Stellaria media [13]) | herbicidal activity VIOTR (Viola tricolor [14]) | Herbicidal activity ECHCG (ECHCG) |
| --- | --- | --- | --- | --- | --- | --- | --- | --- | --- | --- | --- | --- | --- | --- | --- | --- | --- | --- |
| CC[S+]([O-])c1c(C(F)F)ccc(C(=O)Nc2nnc(C)o2)c1I (stereo not drawn) [Example 7-75] | 100% | 100% | 100% | 100% | 100% | 100% | 100% | 100% | 100% | 90% | 80% | 100% | 100% | 80% | 90% | 80% | 100% | 100% |
| CCn1nnnc1NC(=O)c1ccc(C(F)F)c(SC)c1F [Example 2-37] | 100% | 90% | 100% | 100% | 80% | 100% | 100% | 100% | 100% | 100% | 80% | 100% | 90% | 100% | 100% | 100% | 90% | 100% |
| CCc1c(C(=O)Nc2nnnn2C)ccc(C(F)F)c1[S+]([O-])CC (stereo not drawn) [Example 1-17] | 100% | 100% | 100% | 100% | 100% | 100% | 100% | 100% | 100% | 100% | 90% | 100% | 90% | 90% | 90% | 100% | 100% | 90% |
| CCc1c(C(=O)Nc2nnnn2CC)ccc(C(F)F)c1SC [Example 2-13] | 100% | 100% | 100% | 100% | 100% | 100% | 100% | 100% | 100% | 100% | 80% | 100% | 90% | 100% | 100% | 100% | 100% | 90% |
| CCSc1c(C(F)F)ccc(C(=O)Nc2nnnn2CC)c1CC [Example 2-16] | 100% | 100% | 100% | 100% | 100% | 100% | 100% | 100% | 100% | 100% | 90% | 100% | 90% | 100% | 90% | 100% | 100% | 90% |
| Cn1nnnc1NC(=O)c1ccc(C(F)F)c([S+](C)[O-])c1I (stereo not drawn) [Example 1-74] | 100% | 100% | 100% | 100% | 100% | 100% | 100% | 100% | 100% | 100% | 90% | 100% | 90% | 100% | 100% | 100% | 100% | 90% |
| CCSc1c(C(F)F)ccc(C(=O)Nc2nnnn2C)c1F [Example 1-40] | 100% | 100% | 100% | 90% | 100% | 100% | 100% | 100% | 100% | 100% | 90% | 100% | 80% | 100% | 100% | 90% | 90% | 100% |
| CCn1nnnc1NC(=O)c1ccc(C(F)F)c([S+](C)[O-])c1F (stereo not drawn) [Example 2-38] | 100% | 100% | 100% | 100% | 100% | 100% | 100% | 100% | 100% | 90% | 90% | 100% | 90% | 90% | 100% | 100% | 100% | 100% |
| CCn1nnnc1NC(=O)c1ccc(C(F)F)c(SC)c1C1CC1 [Example 2-25] | 100% | 100% | 100% | 100% | 100% | 100% | 100% | 100% | 100% | 100% | 100% | 100% | 100% | 100% | 100% | 100% | 100% | 100% |
| CCn1nnnc1NC(=O)c1ccc(C(F)F)c(S(=O)(=O)CC)c1I [Example 2-78] | 100% | 100% | 100% | 100% | 100% | 100% | 100% | 100% | 100% | 80% | 80% | 100% | 90% | 90% | 90% | 100% | 90% | 90% |
| CC[S+]([O-])c1c(C(F)F)ccc(C(=O)Nc2nnnn2C)c1Br (stereo not drawn) [Example 1-65] | 100% | 100% | 100% | 100% | 90% | 100% | 100% | 100% | 100% | 100% | 100% | 100% | 100% | 100% | 100% | 100% | 100% | 100% |
